In ChEMBL document CHEMBL4725469, “Hydrogen Peroxide Inducible JAK3 Covalent Inhibitor: Prodrug for the Treatment of RA with Enhanced Safety Profile” (ACS Med Chem Lett, 2020):
Calls of active or inactive are those of the source. The rule behind the calls is not given here.

What was measured:
[1] = biological target: T1, Tyrosine-protein kinase JAK3 (Mus musculus) (UniProt Q62137); assay: Inhibition of JAK3 in mouse BaF3/TEL-JAK3 cells assessed as effect on STAT3 phosphorylation at 0.125 to 2 uM by Western blot analysis; format: cell-based; settings: dose microM 0.125-2
T1 sequence (whole entry): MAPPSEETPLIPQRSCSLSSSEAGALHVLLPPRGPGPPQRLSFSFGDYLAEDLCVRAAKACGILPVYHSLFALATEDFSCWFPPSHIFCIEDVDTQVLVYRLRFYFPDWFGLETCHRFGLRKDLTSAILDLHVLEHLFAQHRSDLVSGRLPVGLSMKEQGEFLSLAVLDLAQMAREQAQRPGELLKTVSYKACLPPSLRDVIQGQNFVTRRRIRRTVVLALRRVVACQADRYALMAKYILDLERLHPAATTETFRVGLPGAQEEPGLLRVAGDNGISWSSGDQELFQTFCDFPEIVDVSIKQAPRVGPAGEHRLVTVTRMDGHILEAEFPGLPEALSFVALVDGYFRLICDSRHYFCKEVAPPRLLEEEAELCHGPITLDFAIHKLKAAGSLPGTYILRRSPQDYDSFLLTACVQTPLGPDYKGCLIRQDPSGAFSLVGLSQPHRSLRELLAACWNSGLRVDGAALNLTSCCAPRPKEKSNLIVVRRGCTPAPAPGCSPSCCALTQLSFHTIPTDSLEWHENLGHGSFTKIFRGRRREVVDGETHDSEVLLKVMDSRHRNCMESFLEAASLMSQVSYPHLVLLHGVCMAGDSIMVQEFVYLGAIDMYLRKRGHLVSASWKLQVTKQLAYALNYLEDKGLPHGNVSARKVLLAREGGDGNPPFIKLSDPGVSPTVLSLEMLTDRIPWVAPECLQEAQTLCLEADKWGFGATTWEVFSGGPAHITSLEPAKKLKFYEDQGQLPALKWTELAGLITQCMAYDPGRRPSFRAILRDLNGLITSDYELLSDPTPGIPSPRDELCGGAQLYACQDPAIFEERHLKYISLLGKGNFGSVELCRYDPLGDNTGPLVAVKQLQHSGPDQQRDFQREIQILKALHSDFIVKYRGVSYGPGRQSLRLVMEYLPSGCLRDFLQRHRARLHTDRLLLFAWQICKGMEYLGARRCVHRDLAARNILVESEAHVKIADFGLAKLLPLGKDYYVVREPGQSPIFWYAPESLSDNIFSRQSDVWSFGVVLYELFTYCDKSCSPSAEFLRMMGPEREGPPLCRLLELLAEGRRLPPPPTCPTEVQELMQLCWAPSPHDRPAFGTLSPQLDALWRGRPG

[2] = test system: Mus musculus; assay: Antiarthritic activity in ip dosed collagen/complete freund's adjuvant-induced rheumatoid arthritis DBA/1J mouse model assessed as inhibition of feet swelling administered for 14 days by H and E staining based analysis; format: functional, organism-based; settings: dose mg/kg 5-20, time 14.0 day
[3] = Stability in simulated gastric fluid measured after 0.25 to 24 hrs by RP-UPLC-UV analysis
[4] = Apparent clearance in Sprague-Dawley rat at 20 mg/kg, ip measured for 0.8 to 24 hrs by LC-MS/MS analysis; format: ADME, organism-based; settings: in vivo, time 0.8-24 hrs
[5] = MRT (0 to infinity) in Sprague-Dawley rat at 20 mg/kg, ip measured for 0.8 to 24 hrs by LC-MS/MS analysis; format: ADME, organism-based; settings: in vivo, time 0.8-24 hrs
[6] = Half life in Sprague-Dawley rat at 20 mg/kg, ip measured for 0.8 to 24 hrs by LC-MS/MS analysis; format: ADME, organism-based; settings: in vivo, time 0.8-24 hrs
[7] = Toxicity in ICR mouse assessed as increase in liver weight at 100 mg/kg, ip administered for 14 days; format: organism-based; settings: in vivo, 336 h, time 14 day
[8] = Stability in human plasma at 20 uM after 0.25 to 24 hrs by RP-UPLC-UV analysis; format: ADME, cell-free; settings: time 0.25-24 hrs, read-out: Stabilty
[9] = test system: Mus musculus; assay: In vivo inhibition of JAK3 in collagen/complete freund's adjuvant-induced rheumatoid arthritis DBA/1J mouse model assessed as effect on STAT5 phosphorylation in kidney at 20 mg/kg, ip administered for 14 days by Western blot analysis; format: functional, organism-based; settings: time 14.0 day
[10] = Stability in simulated intestinal fluid incubated for 0.25 to 24 hrs by RP-UPLC-UV analysis
[11] = test system: Mus musculus; assay: Antiarthritic activity in DBA/1J mouse model assessed as effect on collagen/complete freund's adjuvant-induced synovial hyperplasia at 20 mg/kg, ip administered for 14 days by H and E staining analysis; format: functional, organism-based; settings: time 14.0 day
[12] = test system: Mus musculus; assay: In vivo inhibition of JAK3 in collagen/complete freund's adjuvant-induced rheumatoid arthritis DBA/1J mouse model assessed as effect on STAT5 phosphorylation in spleen at 20 mg/kg, ip administered for 14 days by Western blot analysis; format: functional, organism-based; settings: time 14.0 day
[13] = test system: Mus musculus; assay: In vivo inhibition of JAK3 in collagen/complete freund's adjuvant-induced rheumatoid arthritis DBA/1J mouse model assessed as effect on STAT5 phosphorylation in liver at 20 mg/kg, ip administered for 14 days by Western blot analysis; format: functional, organism-based; settings: time 14.0 day
[14] = Drug level in ankle joint of collagen/complete freund's adjuvant-induced rheumatoid arthritis DBA/1J mouse model at 20 mg/kg, ip by LC-MS/MS analysis; format: ADME, organism-based; settings: in vivo, read-out: Ct
[15] = test system: Mus musculus; assay: Antiarthritic activity in DBA/1J mouse model assessed as effect on collagen/complete freund's adjuvant-induced disordered synovial cells in ankle joints at 20 mg/kg, ip administered for 14 days by H and E staining analysis; format: functional, organism-based; settings: time 14.0 day
[16] = AUC in Sprague-Dawley rat at 20 mg/kg, ip measured for 0.8 to 24 hrs by LC-MS/MS analysis; format: ADME, organism-based; set-up: route intraperitoneal, dose 20 mg/kg, time 0.8-24; settings: in vivo
[17] = Apparent volume of distribution in Sprague-Dawley rat at 20 mg/kg, ip measured for 0.8 to 24 hrs by LC-MS/MS analysis; format: ADME, organism-based; settings: in vivo, time 0.8-24 hrs
[18] = test system: Mus musculus; assay: In vivo inhibition of JAK3 in collagen/complete freund's adjuvant-induced rheumatoid arthritis DBA/1J mouse model assessed as effect on STAT5 phosphorylation in heart at 20 mg/kg, ip administered for 14 days by Western blot analysis; format: functional, organism-based; settings: time 14.0 day
[19] = test system: Mus musculus; assay: Antiarthritic activity in ip dosed collagen/complete freund's adjuvant-induced rheumatoid arthritis DBA/1J mouse model assessed as reduction in serum amyloid A level administered for 14 days by ELISA; format: functional, organism-based; settings: dose mg/kg 5-20, time 14.0 day
[20] = Stability in phosphate buffer saline at pH 7.4 after 0.25 to 24 hrs by RP-UPLC-UV analysis; format: physicochemical; settings: time 0.25-24 hrs
[21] = Toxicity in ICR mouse assessed as effect on body weight at 100 mg/kg, ip administered for 14 days; format: organism-based; settings: in vivo, 336 h, time 14 day
[22] = Permeability of compound at pH 7.4 by PAMPA assay; format: ADME; settings: read-out: permeability
[23] = Stability in mouse plasma at 20 uM after 0.25 to 24 hrs by RP-UPLC-UV analysis; format: ADME, cell-free; settings: time 0.25-24 hrs, read-out: Stabilty
[24] = test system: Mus musculus; assay: Antiarthritic activity in ip dosed collagen/complete freund's adjuvant-induced rheumatoid arthritis DBA/1J mouse model assessed as reduction in G-CSF level in serum administered for 14 days by ELISA; format: functional, organism-based; settings: dose mg/kg 5-20, time 14.0 day
[25] = Tmax in Sprague-Dawley rat at 20 mg/kg, ip measured for 0.8 to 24 hrs by LC-MS/MS analysis; format: ADME, organism-based; settings: in vivo, time 0.8-24 hrs
[26] = biological target: T1, Tyrosine-protein kinase JAK3 (Mus musculus); assay: Inhibition of JAK3 in mouse BaF3/TEL-JAK3 cells assessed as effect on STAT5 phosphorylation at 0.125 to 2 uM by Western blot analysis; format: cell-based; settings: dose microM 0.125-2
[27] = Cmax in Sprague-Dawley rat at 20 mg/kg, ip measured for 0.8 to 24 hrs by LC-MS/MS analysis; format: ADME, organism-based; set-up: route intraperitoneal, dose 20 mg/kg, time 0.8-24; settings: in vivo
[28] = Prodrug activation in collagen/complete freund's adjuvant-induced rheumatoid arthritis DBA/1J mouse model assessed as Z)-2-((5-(1-cyclohexyl-1,6-dihydroimidazo[4,5-d]pyrrolo[2,3-b]pyridin-2-yl)furan-2-yl)(hydroxy)methyl)-3-(dimethylamino)-3-((4-(4,4,5,5-tetramethyl-1,3,2-dioxaborolan-2-yl)benzyl)oxy)acrylonitrile level in ankle joint at […], ip by LC-MS/MS analysis; format: organism-based; settings: in vivo, 20 mg/kg, read-out: Ct
[29] = test system: Mus musculus; assay: Antiarthritic activity in DBA/1J mouse model assessed as effect on collagen/complete freund's adjuvant-induced eroded synovial cells in ankle joints at 20 mg/kg, ip administered for 14 days by H and E staining analysis; format: functional, organism-based; settings: time 14.0 day
[30] = test system: Mus musculus; assay: Antiarthritic activity in collagen/complete freund's adjuvant-induced rheumatoid arthritis DBA/1J mouse model assessed as inhibition of feet swelling at 20 mg/kg, ip administered for 14 days by H and E staining based analysis; format: functional, organism-based; settings: time 14.0 day
[31] = Prodrug activation in DMSO assessed as H2O2 mediated prodrug release after 4 hrs in presence of 0.1 uM H2O2 after 4 hrs by RP-HPLC-UV analysis
[32] = test system: Mus musculus; assay: Antiarthritic activity in ip dosed collagen/complete freund's adjuvant-induced rheumatoid arthritis DBA/1J mouse model assessed as reduction in IL-2 level in serum administered for 14 days by ELISA; format: functional, organism-based; settings: dose mg/kg 5-20, time 14.0 day
[33] = test system: Mus musculus; assay: In vivo inhibition of JAK3 in collagen/complete freund's adjuvant-induced rheumatoid arthritis DBA/1J mouse model assessed as effect on STAT5 phosphorylation in lung at 20 mg/kg, ip administered for 14 days by Western blot analysis; format: functional, organism-based; settings: time 14.0 day
[34] = Aqueous solubility of compound at pH 7.4; format: physicochemical; settings: buffer
[35] = Toxicity in ICR mouse assessed as increase in spleen weight at 100 mg/kg, ip administered for 14 days; format: organism-based; settings: in vivo, 336 h, time 14 day
[36] = Dissociation constant, pKa of the compound; format: physicochemical
[37] = Toxicity in ICR mouse assessed as inflammatory inflammation in heart at 100 mg/kg, ip administered for 14 days; format: organism-based; settings: in vivo, 336 h, time 14 day
[38] = test system: Mus musculus; assay: Antiarthritic activity in collagen/complete freund's adjuvant-induced rheumatoid arthritis DBA/1J mouse model assessed as inhibition of feet swelling at 10 mg/kg, ip administered for 14 days by H and E staining based analysis; format: functional, organism-based; settings: time 14.0 day
[39] = Toxicity in ICR mouse assessed as inflammatory inflammation in lungs at 100 mg/kg, ip administered for 14 days; format: organism-based; settings: in vivo, 336 h, time 14 day

Row | Structure (SMILES) | inhibition [1] | CL(app) [4] | MRT inf [5] | t1/2 [6] | Activity [7] | concentration [14] | AUC [16] | Vz [17] | Activity [21] | Papp [22] | Tmax [25] | inhibition [26] | Cmax [27] | solubility [34] | Activity [35] | pKa [36] | further results
1 | CN(C)/C(OCc1ccc(B2OC(C)(C)C(C)(C)O2)cc1)=C(\C#N)C(O)c1ccc(-c2nc3cnc4[nH]ccc4c3n2C2CCCCC2)o1 (stereo not given) | Active | 35 mL/min/kg | 2.38 h | 2.92 h | Non-Toxic | 290 nM | 963.5 µg·h/mL | 8.7 L/kg | Non-Toxic | 56.4 ×10⁻⁶ cm/s | 0.25 h | Active | 983.33 ng/mL | 0.011 mg/kg | Non-Toxic | 10.7 | inhibition [2]: Dose-dependent effect; Stability [3]: > 95%; remaining at 20 µM [8]: > 95%; inhibition [9]: inactive; Stability [10]: > 95%; Activity [11]: Active; inhibition [12]: inactive; inhibition [13]: inactive; Activity [15]: Active; inhibition [18]: inactive; Activity [19]: Active; Stabilty [20]: > 95%; remaining at 20 µM [23]: > 95%; Activity [24]: Active; concentration [28]: 1130 nM; Activity [29]: Active; inhibition [30]: Active; Drug metabolism [31]: Not Active; Activity [32]: Active; inhibition [33]: inactive
2 | CN(C)C(=O)/C(C#N)=C/c1ccc(-c2nc3cnc4[nH]ccc4c3n2C2CCCCC2)o1 | Active | 100 mL/min/kg | 3.84 h | 2.36 h | Toxic | 1070 nM | 331.91 µg·h/mL | 27.96 L/kg | Toxic | 14.7 ×10⁻⁶ cm/s | 0.17 h | Active | 455.37 ng/mL | 0.719 mg/kg | Toxic | 10.1 | Activity [37]: Toxic; inhibition [38]: Active; Activity [39]: Toxic
